Earlier results as cited in US20090105195A1, “COMPOSITION COMPRISING MICROBICIDAL ACTIVE INGREDIENTS” (priority 2007, published 2009).

Legend:
Conditions in all cases: at low amounts, such as 0.025%
[1] = tested on: Herpes Simplex Virus
[2] = tested on: Human Papilloma Virus (HPV)
[3] = tested on: Human Immunodeficiency Virus

CCCCCCCCCCCCOS(=O)(=O)[O-].[Na+] [SLS, sodium lauryl sulfate]
complete inactivation: inactivation of Herpes Simplex Virus [1] | inactivation of Human Papilloma Virus (HPV) [2] | inactivation of Human Immunodeficiency Virus [3]
